Experimental data as given in US20230312587A1, “PTERIDINONE COMPOUNDS AND USES THEREOF” (Vertex Pharmaceutical Incorporated, priority 2018, published 2023).
Read-outs that look alike come from different tables or passages of the source.

What was measured:
Assay type in all cases: cell-based
[1] = system: β-catenin-TCF-mediated reporter transcription activity in Colo 205 cells; experiment: Colo 205 reporter assay (TCF/LEF luciferase); conditions: Colo 205 TCF/LEF luciferase reporter, five hours after addition of compound, read-out: TCF reporter Colo205 IC50
Procedure, shortened: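 Luciferase signal from a TCF/LEF-driven reporter, stably integrated in Colo 205 colon cancer cells, was measured 5 h after compound addition.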

Colo-205 cells = experiment: Calcium flux assay (FLIPR Calcium 5); conditions: FLIPR Calcium 5, measured over 36 minutes
Method: Compounds described herein induced ER stress by causing intracellular calcium flux. Calcium flux was measured in Colo-205 cells using the FLTPR® Calcium 5 Assay Kit according to manufacter's protocol (Molecular Devices, Cat. #R8186) on a FLIPR3 system (Molecular Devices). Calcium flux is measured over 36 minutes. The Colo-205 calcium flux assay data are summarized in Table 47: A<0.6 μM; 0.6 μM≤B<2.0 μM; 2.0 μM≤C<10.0 μM; D≥10.0 μM.

HepG2 WFS1 KO = experiment: In vitro cell viability (CellTiter-Glo), HepG2 WFS1 KO; conditions: for IC50: 96 hours; for shift in IC50 on depletion of WFS1 from HepG2 cells: WFS1 KO vs parental HepG2, 96 hours
Source text: A double cleavage strategy was employed to remove large fragments from the WFS1 locus. Suitable target sites in WFS1 exon 8 were first selected using CRISPR design software to rank suitable target sites and computationally predict off-target sites for each intended target. Six top guide RNA sequences are identified and screened for activity using the Surveyor Mutation Detection Kit (Integrated DNA Technologies). Then, the best 2 guide RNAs were cloned into GeneArt OFP CRISPR nuclease vectors (Thermofisher, Cat #A21174) separately and co-transfected into HepG2 cells using nucleofection (4D Nucleofector X, Lonza). Cells were sorted by FACS 48 hrs later to enrich for the OFP positive cell population. The OFP positive cell population were plated into 96-well plates at 0.5-5 cells/well to isolate clonal cell lines. After allowing cells to expand for 2-3 weeks, plates were inspected for presence of colonies. When colonies became more than 70% confluent, they were dissociated with trypsin and were further expanded. Cell clones with homozygous double cleavage of WFS1 exon 8 were detected with PCR and confirmed with DNA sequencing.
HEK293 cells containing empty pCLPCx vector (HEK293 empty), HEK293 cells stably over-expression WFS1 (HEK293 WFS1), HepG2, and HepG2 cells where WFS1 was depleted via CRISPR/Cas9 (HepG2 WFS1 KO) cells were plated into 96-well black plates (Corning, product #3904) in 100 microliters of complete DMEM cell culture media [DMEM (Life Technologies, product #11960-051) media supplemented with 10% FBS (Hyclone, catalog #SH30071.03), antimycotic/antibiotic (Life Technologies, product #15240-062), and Glutamax (Life Technologies, product #35050-061)] at 1,000 (HEK293) or 5,000 (HepG2) cells per well. Cells were allowed to attach and grow overnight, after which compounds are added at various concentrations. Cell viability was assessed 96 hrs after compound addition with CellTiter-Glo reagent (Promega, catalog #G7570) according to manufacturer's protocol and measurement on a Pherastar luminescence plate reader (BMG Labtech).
To determine the effect of WFS1 depletion on compound mediated inhibition of cell viability, parental HepG2 cells and HepG2 cells where WFS1 was deleted by CRISPR/Cas9 were exposed to increasing concentrations of either Compound 136 or Compound 253 for 96 hours after which time viability was determined using Cell Titer Glo reagent (Promega). […] The IC50s for the viability of both the HepG2 parental and WFS1 knockout cells are summarized in Table 47: A<0.5 μM; 0.5 μM≤<2.0 μM; 2.0 μM≤C<10.0 μM; D≥[…].

[2] = Homo sapiens, HepG2 WFS1 knockout, read-out: HepG2 WFS1 KO viability
[3] = HepG2 WFS1 knockout, read-out: HepG2 WFS1 KO viability

## Cc1nc(NCc2cnn(Cc3ccc(C(F)(F)F)nc3Cl)c2)nc2c1NC(=O)[C@H](C)N2C [Compound 418, (7S)-2-(((1-((2-chloro-6-(trifluoromethyl)pyridin-3-yl)methyl)-1H-pyrazol-4-yl)methyl)amino)-4,7,8-trimethyl-7,8-dihydropteridin-6(5H)-one]
[1]; Homo sapiens, COLO 205, 5 h
  IC50: < 0.3 µM
Colo-205 cells; Homo sapiens, COLO 205, 0.6 h
  EC50: < 0.6 µM
HepG2 WFS1 KO; [2]
  IC50: ≥ 10 µM

## Cc1nc(NCc2cnn(C[C@H](C)c3ccc(F)cc3)c2)nc2c1NC(=O)[C@H](C)N2C [Compound 96, (7S)-2-(((1-((R)-2-(4-fluorophenyl)propyl)-1H-pyrazol-4-yl)methyl)amino)-4,7,8-trimethyl-7,8-dihydropteridin-6(5H)-one]
[1]; Homo sapiens, COLO 205, 5 h
  IC50: < 0.3 µM
Colo-205 cells; Homo sapiens, COLO 205, 0.6 h
  EC50: < 0.6 µM
HepG2 WFS1 KO; [2]
  IC50: ≥ 10 µM

## Cc1nc(NCc2cnn(Cc3ccc(C(F)(F)F)nc3C(C)O)c2)nc2c1NC(=O)[C@H](C)N2C (stereo partly drawn) [Compound 419, (7S)-2-(((1-((2-((S)-1-hydroxyethyl)-6-(trifluoromethyl)pyridin-3-yl)methyl)-1H-pyrazol-4-yl)methyl)amino)-4,7,8-trimethyl-7,8-dihydropteridin-6(5H)-one]
[1]; Homo sapiens, COLO 205, 5 h
  IC50: < 0.3 µM
Colo-205 cells; Homo sapiens, COLO 205, 0.6 h
  EC50: 2 to 10 µM
HepG2 WFS1 KO; [2]
  IC50: ≥ 10 µM

## CC[C@H]1C(=O)Nc2cnc(NCc3cnn(Cc4ccc(C(F)(F)F)nc4)c3)nc2N1C [Compound 427, (7S)-7-ethyl-8-methyl-2-(((1-((6-(trifluoromethyl)pyridin-3-yl)methyl)-1H-pyrazol-4-yl)methyl)amino)-7,8-dihydropteridin-6(5H)-one]
[1]; Homo sapiens, COLO 205, 5 h
  IC50: 0.3 to 1 µM
Colo-205 cells; Homo sapiens, COLO 205, 0.6 h
  EC50: 0.6 to 2 µM
HepG2 WFS1 KO; [2]
  IC50: ≥ 10 µM

## Cc1nc(NCc2cnn(Cc3ccc(F)cc3)c2)nc2c1N(C)C(=O)[C@H](C)N2C [Compound 1, (7S)-2-(((1-(4-fluorobenzyl)-1H-pyrazol-4-yl)methyl)amino)-4,5,7,8-tetramethyl-7,8-dihydropteridin-6(5H)-one]
[1]; Homo sapiens, COLO 205, 5 h
  IC50: < 0.3 µM
Colo-205 cells; Homo sapiens, COLO 205, 0.6 h
  EC50: < 0.6 µM
HepG2 WFS1 KO; [2]
  IC50: ≥ 10 µM

## Cc1nc(NCc2cnn(Cc3ccc(C(F)(F)F)nc3)c2)nc2c1NC(=O)[C@H](C)N2C [Compound 136, (7S)-4,7,8-trimethyl-2-(((1-((6-(trifluoromethyl)pyridin-3-yl)methyl)-111-pyrazol-4-yl)methyl)amino)-7,8-dihydropteridin-6(5H)-one]
[1]
  IC50: < 0.3 µM
Colo-205 cells
  EC50: 0.6 to 2 µM
HepG2 WFS1 KO; [3]
  IC50: ≥ 10 µM
HepG2 WFS1 KO; cell viability, HepG2 WFS1 KO, Cell Titer Glo, read-out: IC50
  IC50: > 27 µM
HepG2 WFS1 KO; cell viability, HepG2 WFS1 KO, read-out: IC50 class
  IC50: ≥ 10 µM
HepG2 WFS1 KO; cell viability
  shift in IC50 on depletion of WFS1 from HepG2 cells: greater than 100 fold

## Cc1nc(NCc2cnn(Cc3ccc(F)cc3)c2)nc2c1NC(=O)C1(CC1)N2 [Compound 222, 2′-(((1-(4-fluorobenzyl)-1H-pyrazol-4-yl)methyl)amino)-4′-methyl-5′,8′-dihydro-6′H-spiro[cyclopropane-1,7′-pteridin]-6′-one]
[1]; Homo sapiens, COLO 205, 5 h
  IC50: ≥ 5 µM
Colo-205 cells; Homo sapiens, COLO 205, 0.6 h
  EC50: 2 to 10 µM
HepG2 WFS1 KO; [2]
  IC50: ≥ 10 µM

## CCOc1ccc(CCn2cc(CNc3ncc4c(n3)N(C)[C@@H](C)C(=O)N4)cn2)cc1 [Compound 121, (7S)-2-(((1-(4-ethoxyphenethyl)-1H-pyrazol-4-yl)methyl)amino)-7,8-dimethyl-7,8-dihydropteridin-6(5H)-one]
[1]; Homo sapiens, COLO 205, 5 h
  IC50: 1 to 5 µM
Colo-205 cells; Homo sapiens, COLO 205, 0.6 h
  EC50: 0.6 to 2 µM
HepG2 WFS1 KO; [2]
  IC50: ≥ 10 µM

## Cc1nc(NCc2cnn(CC(C)(O)c3ccc(F)cc3)c2)nc2c1NC(=O)[C@H](C)N2C (stereo partly drawn) [Compound 128, (7S)-2-(((1-(2-(4-fluorophenyl)-2-hydroxypropyl)-1H-pyrazol-4-yl)methyl)amino)-4,7,8-trimethyl-7,8-dihydropteridin-6(5H)-one]
[1]; Homo sapiens, COLO 205, 5 h
  IC50: 1 to 5 µM
Colo-205 cells; Homo sapiens, COLO 205, 0.6 h
  EC50: 2 to 10 µM
HepG2 WFS1 KO; [2]
  IC50: ≥ 10 µM

## (7S)-2-(((1-((6-fluoro-2-isopropylpyridin-3-yl)methyl)-1H-pyrazol-4-yl)methyl)(methyl)amino)-7-isopropyl-4,8-dimethyl-7,8-dihydropteridin-6(5H)-one [Compound 430]
[1]
  IC50: < 0.3 µM
Colo-205 cells
  EC50: 0.6 to 2 µM
HepG2 WFS1 KO; [3]
  IC50: ≥ 10 µM

## Cc1nc(N[C@H]2C[C@H](Oc3cc(F)c(F)c(F)c3)C2)nc2c1N(C)C(=O)[C@H](C)N2C [Compound 253, (7S)-4,5,7,8-tetramethyl-2-((trans-3-(3,4,5-trifluorophenoxy)cyclobutyl)amino)-7,8-dihydropteridin-6(5H)-one]
[1]; Homo sapiens, COLO 205, 5 h
  IC50: < 0.3 µM
Colo-205 cells; Homo sapiens, COLO 205, 0.6 h
  EC50: < 0.6 µM
HepG2 WFS1 KO; Homo sapiens, cell viability, HepG2 WFS1 KO, Cell Titer Glo, read-out: IC50
  IC50: 4.4 µM
HepG2 WFS1 KO; Homo sapiens, cell viability, HepG2 WFS1 KO, read-out: IC50 class
  IC50: 2 to 10 µM
HepG2 WFS1 KO; cell viability
  shift in IC50 on depletion of WFS1 from HepG2 cells: greater than 5 fold
